Literature values as cited in patent publication US20220370466A1, “REGIMENS FOR TREATING HIV INFECTIONS AND AIDS” (ViiV Healthcare Company, priority 2017, published 2022).
Where two headings read alike, the source gives them in different places.

Tests used:
CYP3A4 [1] = biological target: T1, CYP3A4 (Homo sapiens, UniProt P08684)
UGT1A1 = biological target: T2, UGT1A1 (Homo sapiens, UniProt P22309)
T2 sequence (P22309 26-533): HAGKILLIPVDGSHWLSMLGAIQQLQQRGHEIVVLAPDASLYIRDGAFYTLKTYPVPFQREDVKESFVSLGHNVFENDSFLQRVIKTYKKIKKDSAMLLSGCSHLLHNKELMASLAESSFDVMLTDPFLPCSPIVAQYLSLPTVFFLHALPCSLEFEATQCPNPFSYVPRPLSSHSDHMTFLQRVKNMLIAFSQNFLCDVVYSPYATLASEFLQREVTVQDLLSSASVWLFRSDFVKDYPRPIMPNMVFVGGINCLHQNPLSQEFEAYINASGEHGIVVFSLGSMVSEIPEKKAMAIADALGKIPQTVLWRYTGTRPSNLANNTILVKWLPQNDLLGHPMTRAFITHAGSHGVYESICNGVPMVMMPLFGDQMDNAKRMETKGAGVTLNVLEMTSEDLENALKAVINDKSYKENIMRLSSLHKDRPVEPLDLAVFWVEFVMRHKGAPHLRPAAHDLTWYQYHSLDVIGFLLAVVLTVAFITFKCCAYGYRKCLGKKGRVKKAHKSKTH

UGT1A3 = biological target: T3, UGT1A3 (Homo sapiens, UniProt P35503); details: in vitro
T3 sequence (P35503 29-534): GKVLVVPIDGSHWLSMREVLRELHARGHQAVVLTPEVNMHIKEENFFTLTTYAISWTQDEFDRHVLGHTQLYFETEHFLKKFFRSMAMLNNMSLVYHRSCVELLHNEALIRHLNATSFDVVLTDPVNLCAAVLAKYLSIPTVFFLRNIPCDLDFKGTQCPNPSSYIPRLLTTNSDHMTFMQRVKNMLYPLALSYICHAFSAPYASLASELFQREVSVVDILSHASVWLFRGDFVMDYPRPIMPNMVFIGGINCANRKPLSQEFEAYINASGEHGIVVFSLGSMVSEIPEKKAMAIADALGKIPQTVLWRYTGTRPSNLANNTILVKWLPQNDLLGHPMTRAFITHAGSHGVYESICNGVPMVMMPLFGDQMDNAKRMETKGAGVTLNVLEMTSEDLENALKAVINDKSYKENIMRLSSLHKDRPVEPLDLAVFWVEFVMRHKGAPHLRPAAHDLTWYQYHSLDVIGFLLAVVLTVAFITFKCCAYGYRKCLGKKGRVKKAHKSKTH

UGT1A9 = biological target: T4, UGT1A9 (Homo sapiens, UniProt O60656); details: in vitro
T4 sequence (O60656 26-530): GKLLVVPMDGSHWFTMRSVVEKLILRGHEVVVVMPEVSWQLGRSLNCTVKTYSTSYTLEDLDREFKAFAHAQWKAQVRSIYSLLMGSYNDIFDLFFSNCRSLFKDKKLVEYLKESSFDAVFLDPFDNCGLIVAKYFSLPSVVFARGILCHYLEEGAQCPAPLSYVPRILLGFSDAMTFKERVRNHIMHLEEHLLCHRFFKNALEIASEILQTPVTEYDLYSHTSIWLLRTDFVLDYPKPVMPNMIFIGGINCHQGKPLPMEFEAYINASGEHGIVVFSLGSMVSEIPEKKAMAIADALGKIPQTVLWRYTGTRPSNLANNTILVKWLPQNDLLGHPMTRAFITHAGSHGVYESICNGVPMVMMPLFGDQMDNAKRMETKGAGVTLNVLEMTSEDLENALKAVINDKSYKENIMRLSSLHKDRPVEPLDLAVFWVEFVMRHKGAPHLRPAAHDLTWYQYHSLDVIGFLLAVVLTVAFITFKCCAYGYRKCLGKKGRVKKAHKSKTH

BCRP = biological target: T5, BCRP (Homo sapiens, UniProt Q9UNQ0); details: in vitro
T5 sequence (Q9UNQ0 1-655): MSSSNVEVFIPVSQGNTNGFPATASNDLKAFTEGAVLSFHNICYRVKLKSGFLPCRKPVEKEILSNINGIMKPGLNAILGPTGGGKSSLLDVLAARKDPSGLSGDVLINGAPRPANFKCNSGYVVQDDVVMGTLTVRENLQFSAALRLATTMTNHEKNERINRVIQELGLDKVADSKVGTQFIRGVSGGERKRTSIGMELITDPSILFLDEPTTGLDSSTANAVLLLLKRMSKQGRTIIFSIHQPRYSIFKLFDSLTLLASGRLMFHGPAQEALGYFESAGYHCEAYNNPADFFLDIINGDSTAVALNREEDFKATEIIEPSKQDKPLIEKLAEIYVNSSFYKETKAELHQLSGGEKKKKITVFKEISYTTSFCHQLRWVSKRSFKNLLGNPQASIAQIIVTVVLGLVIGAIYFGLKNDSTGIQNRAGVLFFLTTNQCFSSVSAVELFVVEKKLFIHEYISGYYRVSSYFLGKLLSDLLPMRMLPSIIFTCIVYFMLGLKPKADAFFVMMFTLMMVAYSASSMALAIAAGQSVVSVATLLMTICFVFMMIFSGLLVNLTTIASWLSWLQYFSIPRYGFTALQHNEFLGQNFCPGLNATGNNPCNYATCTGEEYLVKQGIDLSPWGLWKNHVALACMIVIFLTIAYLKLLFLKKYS

P-gp = P-gp (Homo sapiens, UniProt P08183); details: in vitro
P-gp, sequence (P08183 whole entry): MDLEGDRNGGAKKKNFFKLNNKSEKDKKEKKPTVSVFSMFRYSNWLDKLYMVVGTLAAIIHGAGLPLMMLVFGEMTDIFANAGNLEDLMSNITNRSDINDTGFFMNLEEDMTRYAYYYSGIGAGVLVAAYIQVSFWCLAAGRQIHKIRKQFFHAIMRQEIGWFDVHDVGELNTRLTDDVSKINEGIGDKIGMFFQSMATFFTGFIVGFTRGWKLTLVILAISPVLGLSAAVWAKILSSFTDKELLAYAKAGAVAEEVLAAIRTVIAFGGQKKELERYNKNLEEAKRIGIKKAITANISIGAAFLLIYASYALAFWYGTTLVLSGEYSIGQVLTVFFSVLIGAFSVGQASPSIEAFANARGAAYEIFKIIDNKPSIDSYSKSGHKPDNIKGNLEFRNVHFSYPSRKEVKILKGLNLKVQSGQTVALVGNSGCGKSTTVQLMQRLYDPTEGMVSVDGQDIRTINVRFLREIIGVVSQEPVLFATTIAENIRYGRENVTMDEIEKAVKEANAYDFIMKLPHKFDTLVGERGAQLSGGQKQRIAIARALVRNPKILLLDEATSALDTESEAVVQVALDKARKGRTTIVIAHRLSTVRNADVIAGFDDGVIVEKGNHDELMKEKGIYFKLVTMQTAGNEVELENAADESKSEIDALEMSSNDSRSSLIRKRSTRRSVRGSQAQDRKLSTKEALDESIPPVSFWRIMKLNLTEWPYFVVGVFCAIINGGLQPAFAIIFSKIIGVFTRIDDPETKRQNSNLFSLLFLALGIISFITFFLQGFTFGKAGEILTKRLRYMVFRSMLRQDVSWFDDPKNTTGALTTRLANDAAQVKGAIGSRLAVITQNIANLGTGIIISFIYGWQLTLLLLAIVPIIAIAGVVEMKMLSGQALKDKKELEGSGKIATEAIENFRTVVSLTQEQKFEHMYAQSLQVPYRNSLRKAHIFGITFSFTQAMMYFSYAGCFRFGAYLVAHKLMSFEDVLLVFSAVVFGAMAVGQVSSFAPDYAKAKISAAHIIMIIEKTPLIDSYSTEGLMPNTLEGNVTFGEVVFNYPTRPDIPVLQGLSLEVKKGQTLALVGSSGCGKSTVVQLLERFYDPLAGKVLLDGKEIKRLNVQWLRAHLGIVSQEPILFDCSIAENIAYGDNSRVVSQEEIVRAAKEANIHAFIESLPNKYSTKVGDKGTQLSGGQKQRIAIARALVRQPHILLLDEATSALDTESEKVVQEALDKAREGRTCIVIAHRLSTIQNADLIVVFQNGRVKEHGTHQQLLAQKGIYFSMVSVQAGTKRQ

HIV-1 = details: lymphoblastoid cell lines, MAGI-CCR5 cell line, peripheral blood mononuclear cells
HIV [2] = details: CD4+ T-cells isolated from thirteen (13) persons
HIV [3] = details: monocyte-derived macrophages (MDMs)
CYP3A4 [4] = biological target: T1, CYP3A4; remark: listed apart in the source
[5] = test system: cytochrome P450 (CYP) isozymes

T1 sequence (P08684 whole entry): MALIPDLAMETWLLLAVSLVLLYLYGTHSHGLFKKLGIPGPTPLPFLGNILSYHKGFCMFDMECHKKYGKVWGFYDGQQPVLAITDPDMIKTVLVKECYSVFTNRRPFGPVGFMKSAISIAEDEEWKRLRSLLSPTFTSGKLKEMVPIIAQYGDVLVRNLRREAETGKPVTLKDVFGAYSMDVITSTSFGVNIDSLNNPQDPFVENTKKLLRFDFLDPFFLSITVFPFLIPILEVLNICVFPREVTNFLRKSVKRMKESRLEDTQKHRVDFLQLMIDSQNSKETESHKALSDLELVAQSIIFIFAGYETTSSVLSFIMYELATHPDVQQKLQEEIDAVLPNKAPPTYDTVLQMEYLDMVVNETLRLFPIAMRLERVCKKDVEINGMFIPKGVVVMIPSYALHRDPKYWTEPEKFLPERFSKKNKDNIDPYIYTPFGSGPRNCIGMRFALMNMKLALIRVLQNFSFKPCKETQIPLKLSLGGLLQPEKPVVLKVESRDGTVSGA

SMILES: O=C(NCc1c(F)cc(F)cc1F)c1cn2c(c(O)c1=O)C(=O)N1[C@H]3CC[C@H](C3)O[C@@H]1C2 [Bictegravir, (2R,5S,13aR)-8-hidroxi-7,9-dioxo-N-[(2,4,6-trifluorofenil)metil]-2,3,4,5,7,9,13,13a-octahidro-2,5-metanopirido[1′,2′: 4,5]pirazino[2,1-b][1,3]oxazepina-10-carboxamida]
- metabolic clearance through CYP3A4 (CYP3A4 [1]): metabolically cleared
- metabolic clearance through UGT1A1 (UGT1A1): metabolically cleared
- substrate of UGT1A3 (UGT1A3): substrate
- substrate of UGT1A9 (UGT1A9): substrate
- substrate of BCRP (BCRP): substrate
- substrate of P-gp (P-gp): substrate

SMILES: Nc1nc(=O)n([C@@H]2CS[C@H](CO)O2)cc1F [Emtricitabine, 5-fluoro-1-(2R,5S)-[2-(hydroxymethyl)-1,3oxathiolan-5-yl]cytosine]
- EC50 value against HIV-1 (HIV-1): 3 to 158 ng/mL
- EC50 (HIV-1; read-out: EC50 value against HIV-1): 1.3 to 640 nM

SMILES: CC(C)OC(=O)[C@H](C)N[P@](=O)(CO[C@H](C)Cn1cnc2c(N)ncnc21)Oc1ccccc1 [TAF, L-alanine, N-[(S)-[[(1R)-2-(6-amino-9H-purin-9-yl)-1methylethoxy]methyl]phenoxyphosphinyl]-, 1-methylethyl ester, (2E)-2-butenedioate (2:1)]
- EC50 (HIV [2]; read-out: mean EC50): 11 nM
- EC50 (HIV [2]; read-out: median EC50): 10.2 nM
- EC50 (HIV [3]; read-out: mean EC50): 9.7 nM
- EC50 (HIV [3]; read-out: median EC50): 10.3 nM

SMILES: C[C@@H]1CCO[C@H]2Cn3cc(C(=O)NCc4ccc(F)cc4F)c(=O)c(O)c3C(=O)N12 [Dolutegravir, (4R,12a5)-N-[(2,4-difluorophenyl)methyl]-7-hydroxy-4-methyl-6,8-dioxo-3 ,4,12,12a-tetrahydro-2H-pyrido[5, 6]pyrazino[2,6-b][1,3]oxazine-9-carboxamide]
- extent to which the drug is a substrate of CYP3A4 (CYP3A4 [4]): about 15%
- induction or inhibition of cytochrome P450 (CYP) isozymes [5]: demonstrates induction or inhibition
